From patent US20260191974A1, “B7-H3 TARGETING LIGANDS AND METHODS OF USE” (The University of North Carolina at Chapel Hill, priority 2022, published 2026)
“And” between values parts separate entries of the source, which are not always exact repeats. Equal entries are not always repeated. *1 amine or outer side, *2 acyl side, *3 side chain or, on linkers, in order; H or OH if unused. Where a SMILES comes first, the peptide text is derived from it. Bridges are numbered along the chain shown (N, C = ends). Where no end group is shown, it is not given here. [ ]: non-standard residue; d: D form. ξ: configuration not given here. mXylylene = c1cc(C[*:1])cc(C[*:2])c1; Nle = CCCC[C@H](N)C(=O)O; ξP = O=C(O)C1CCCN1

Key:
[1] = test system: human and murine B7-H3; experiment: Ka (M^-1s^-1)
Method: (§1) Table printed on a drawing sheet, FIG. 24C
Head of the field: Ka (M^-1s^-1)
(§2) The patent's description of the figure: FIGS. 24A-24C. SPR analysis of the selected peptides B1.1 and JP5. The B1.1 variant was analyzed at analyte concentrations of 7.5, 15, 30, 60, and 120 nM (FIG. 24A) and the JP5 variant was analyzed at analyte concentrations of 22.2, 66.6, 200, 600 and 1800 nM (FIG. 24B). (FIG. 24C) Binding kinetics of each peptide.
(§3) First copying reader's note: Bracket lines drawn over and under the sequences mark ring closures that the text cells cannot show: C-C above and Q-K below in oxidized B1.1, Q-K below only in reduced B1.1, and C-C above in JP5.
(§4) Where the first naming reader finds the target: passage: Surface plasmon resonance was used to evaluate binding of B1.1 and JP5 to both human and murine B7-H3 (FIGS. 24A-24C)

[2] = test system: Raji cells expressing murine B7-H3; experiment: Live imaging with GFP-tagged endosome/lysosome reporters in Raji cells expressing murine B7-H3; assay type: cell-based; details: JP3-PEG-TAMRA or JP5-PEG-TAMRA at 250 nM for 5 hours
Method: FIGS. 22A-22B. Live imaging of an example targeting ligand uptake in Raji cells expressing murine B7-H3 pre-incubated with GFP-tagged reporters for early (Rab5a) and late (Rab7a) endosomes or early (Lamp1) lysosomes. Cells were treated with JP3-PEG-TAMRA (FIG. 22A) or JP5-PEG-TAMRA (FIG. 22B) at 250 nM for 5 hours, cytospun with live cell imaging subsequently performed.
Live imaging of an example targeting ligand uptake in Raji cells expressing murine B7-H3 pre-incubated with GFP-tagged reporters for early (Rab5a) and late (Rab7a) endosomes or early (Lamp1) lysosomes is shown in FIG. 22A (JP3) and FIG. 22B (JP5).

[3] = biological target: T1, B7-H3 (Homo sapiens, UniProt Q5ZPR3); experiment: mRNA display validation assay of NGS hits against B7-H3; assay type: binding; details: naïve NNK10 library as a control
T1 sequence (Q5ZPR3 29-534): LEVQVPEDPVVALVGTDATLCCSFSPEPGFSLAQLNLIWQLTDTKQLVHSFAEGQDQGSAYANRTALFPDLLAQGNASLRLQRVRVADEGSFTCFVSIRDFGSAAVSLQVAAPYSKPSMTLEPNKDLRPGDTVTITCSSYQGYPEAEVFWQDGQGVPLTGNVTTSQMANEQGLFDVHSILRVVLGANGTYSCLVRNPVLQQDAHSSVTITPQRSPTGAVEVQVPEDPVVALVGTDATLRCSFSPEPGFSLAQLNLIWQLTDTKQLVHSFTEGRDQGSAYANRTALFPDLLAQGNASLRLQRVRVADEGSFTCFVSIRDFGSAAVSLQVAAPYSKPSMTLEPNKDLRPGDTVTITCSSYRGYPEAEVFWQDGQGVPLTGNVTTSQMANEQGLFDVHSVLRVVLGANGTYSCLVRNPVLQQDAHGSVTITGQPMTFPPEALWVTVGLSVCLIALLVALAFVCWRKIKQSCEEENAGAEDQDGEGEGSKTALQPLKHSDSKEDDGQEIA
Description: FIGS. 11A-11F. Dibromoxylene (DBX) mediated B7-H3 selection. (FIG. 11A) Selection schematic details the selection process for identifying binders against B7-H3 using DBX. (FIG. 11B) qPCR results of the DBX mediated B7-H3 selection. (FIG. 11C) Mean frequency vs. number of sequences. (FIG. 11D) NGS data of the selection hits from Selections (rounds 3 and 5), named sequences indicate sequences purchased for binding validation. (FIG. 11E) Validation assay identified hits from NGS data run through the selection process (outlined in (FIG. 11A)), with the naïve NNK10 library as a control.
A background screen against selection components is carried out prior to the selection against B7-H3 to remove non-specific binders. FIG. 11D includes sequences from NGS data with named sequences evaluated for binding validation. […] Exemplary DBX hit structures are shown in FIG. 12, with points of cargo attachment designated with arrows.

[4] = Serum stability in 50% fetal bovine serum; assay type: in vitro ADME; details: 37° C., read-out: peptide remaining intact
Method: Serum stability of JP3 and JP5 was assessed. Peptides (JP3 or JP5) were incubated in 50% fetal bovine serum (diluted in media) at 37° C. and samples were taken over a time course spanning 24 h. Samples were mixed with cold methanol to crash out serum protein, and the supernatant containing the peptides was collected and run on MS to determine the amount of peptide present at each time point.

[5] = biological target: human and murine B7-H3; experiment: KD (nM)
Method: as §1
Head of the field: KD (nM)
as §2, §3, §4

[6] = biological target: T2, biotinylated B7-H3 (Homo sapiens, UniProt Q5ZPR3); experiment: Surface Plasmon Resonance (SPR) analysis against biotinylated B7-H3; details: biotinylated B7-H3, 25° C., 1:1 binding kinetics model
T2 sequence (Q5ZPR3 29-534): T1 sequence (Q5ZPR3 29-534)
Description: (§5) FIGS. 4A-4G. (FIG. 4A) Selection schematic detailing the selection process for identifying binders against B7-H3. (FIG. 4B) qPCR results of the mTG mediated B7-H3 selection. (FIG. 4C) B7-H3 selection results and complete NGS analysis of B7-H3 hits. (FIG. 4D) NGS data of the selection hits. […] Arrow indicates the peptide pursued for binding validation. (FIG. 4E) EIC ([M+2], 948.91 m/z) traces corresponding to the product of the mTG reaction with linear B1.1 peptide and the synthetic lactam, disulfide peptide. (FIG. 4F) Surface Plasmon Resonance (SPR) analysis of the selected peptide (B1.1), the Met9Nle variant, and the linear variant. […] The selected B1.1 and the Met9Nle variant were analyzed at analyte concentrations of 7.5, 15, 30, 60, 120 nM. The linear variant was analyzed at analyte concentrations of 50, 100, 200, 400, 800 nM. […] (FIG. 4G) Individual SPR curves. Fitted curve and raw data are shown.
Surface Plasmon Resonance (SPR) analysis. Binding kinetics between our selected peptide (and variants) and biotinylated B7-H3 (B7-H3b) were assessed through SPR analysis using a BIACORE 8K SPR system (GE Healthcare). The running buffer was 1×PBS pH7.5, 0.05% TWEEN® 20 and all analysis was carried out at 25° C. B7-H3b was loaded onto a NeutrAvidin SPR Chip (Series S Sensor Chip NA, 29407997, Cytiva) at a flow rate of […] to a surface density of 1000-1500 response units. Analyte was then injected over a series of five concentrations and quantified by BIACORE single-cycle kinetics method. For our selected peptide (B1.1) and the Met9Nle variant a range of 7.5, 15, 30, 60, 120 nM were run. For the linear variant concentrations of 50, 100, 200, 400, 800 nM were run. Binding sonograms were generated using a standard 1:1 binding kinetics model and kinetics constants determined using standard BIACORE evaluation software.

[7] = test system: B7-H3; experiment: ka (M^-1s^-1)
Description: (§6) Table printed on a drawing sheet, FIG. 4F
Head of the field: ka (M^-1s^-1)
as §5, with “The patent's description of the figure: FIGS.” for “FIGS.”
(§7) First copying reader's note: Brackets drawn on the SELECTED and MET9NLE sequences join C to C (above) and Q to K (below), marking a bicyclic peptide; LINEAR has no brackets.
(§8) Where the first naming reader finds the target: passage: Binding affinities were assessed for each peptide by surface plasmon resonance (SPR) against biotinylated B7-H3.

[8] = test system: B7-H3; experiment: kd (s^-1)
Description: as §6
Head of the field: kd (s^-1)
as §5, with “The patent's description of the figure: FIGS.” for “FIGS.”
as §7, §8

Molecule	Ka (M^-1s^-1) [1]	subcellular localization (Rab5a, Rab7a, Lamp1 reporters) [2]	binding in validation assay [3]	remaining at 24 h [4]	binding affinity towards B7-H3 [6]	also measured
CC[C@H](C)[C@@H]1NC(=O)[C@H](CC(=O)O)NC(=O)[C@H](CCCNC(=N)N)NC(=O)[C@H]([C@@H](C)CC)NC(=O)[C@H]([C@@H](C)O)NC(=O)[C@H](Cc2c[nH]c3ccccc23)NC(=O)[C@@H](NC(C)=O)CSCc2cccc(c2)CSC[C@@H](C(=O)NCC(=O)O)NC(=O)[C@H](CCCNC(=N)N)NC(=O)[C@H]([C@@H](C)O)NC(=O)CNC(=O)[C@H](CC(N)=O)NC1=O [JP5, N-terminal acetylated CWTIRDINGTRCG] (Ac-CWTIRDINGTRCG-OH; linker 1-12 via mXylylene; N-terminus and C-terminus assumed)	1.25e^5 and 1.02e^5	predominantly cell surface localization of JP5 was observed with some rare evidence of endosomal uptake	strong B7-H3 binders	80%	–	–
acWALQLCHSNleFYTCKSGK(AZO)G [OXIDIZED B1.1 | 296]	–	–	–	–	–	Kd [5]: 0.161 µM
linear variant of B1.1: linear form of B1.1 without lactam and disulfide cyclization (WALQLCHSMFYTCKSG-NH2; cysteine pairing not given here)	–	–	–	–	no detectable binding interaction	binding affinity towards B7-H3 ([6]; listed as linear precursor peptide): did not bind
CC[C@H](C)[C@@H]1NC(=O)[C@@H](NC(C)=O)CSCc2cccc(c2)CSC[C@@H](C(=O)NCC(=O)O)NC(=O)[C@@H]2CCCN2C(=O)[C@H](CC(C)C)NC(=O)[C@H](Cc2ccccc2)NC(=O)[C@H](CCCNC(=N)N)NC(=O)C2CCCN2C(=O)[C@H]([C@@H](C)CC)NC(=O)[C@H](CCCNC(=N)N)NC(=O)[C@H]([C@@H](C)O)NC(=O)[C@H](Cc2c[nH]c3ccccc23)NC(=O)[C@H](C(C)C)NC1=O (stereo partly drawn) [JP3, N-terminal acetylated CIVWTRIPRFLPCG] (Ac-CIVWTRI[ξP]RFLPCG-OH; linker 1-13 via mXylylene)	–	Co-localization of JP3 and Rab5a	strong B7-H3 binders	~40%	–	–
acWALQLCHSNleFYTCKSGK(AZO)G [REDUCED B1.1 | 294]	7.444e^7	–	–	–	–	–
CCCC[C@@H]1NC(=O)[C@H](CO)NC(=O)[C@H](Cc2c[nH]cn2)NC(=O)[C@@H]2CSSC[C@H](NC(=O)[C@H]([C@@H](C)O)NC(=O)[C@H](Cc3ccc(O)cc3)NC(=O)[C@H](Cc3ccccc3)NC1=O)C(=O)N[C@H](C(=O)N[C@@H](CO)C(=O)NCC(N)=O)CCCCNC(=O)CC[C@H](NC(=O)[C@H](CC(C)C)NC(=O)[C@H](C)NC(=O)[C@H](Cc1c[nH]c3ccccc13)NC(C)=O)C(=O)N[C@@H](CC(C)C)C(=O)N2 [Met9Nle variant, acWALQLCHSNleFYTCKSG] (Ac-WALELCHS[Nle]FYTCKSG-NH2; lactam 4-14; disulfide 6-13)	–	–	–	–	similar	ka (M^-1s^-1) [7]: 9.55e^5; Kd ([6]; read-out: binding affinity towards B7-H3): 0.0469 µM; kd (s^-1) [8]: 4.48e^-2
